Compound in one assay: CN1CCN(CC1)C2=CC(=C(C=C2)NC3=NC=C4C(=N3)N(C5=CC=CC=C5C(=O)N4C)C)OC [XMD8-85]
Kind of assay: relative viability (nuclei count vs DMSO), 5 days (fraction); higher = more cells survive. In a few lines: (§1)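 Five library-drug doses, separated by factors of √10, were pinned into 1536-well plates holding lung cancer cell lines after an overnight stay at 37 °C. Cells were fixed, permeabilised and Hoechst-stained in one step after 5 days without medium change, then imaged at 4×. Viability compares treated-well with vehicle-well nuclei, counted in MetaXpress, as a median across plates. Passing plates had control CV below 25% and at least one doubling.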

Compound in a further assay: O=C(O)C(Cc1ccccc1[N+](=O)[O-])=NNc1nc(-c2ccc(Cl)c(Cl)c2)cs1 (mixture of isomers) [4EGI-1]
The assay is described as above. In short, it runs like this: as §1

Consider NCI-H1651, for which the relative viability with XMD8-85 (0.08 µM) was determined as 1.06; with XMD8-85 (0.253 µM), 0.983; with XMD8-85 (0.8 µM), 0.978; in the assay with XMD8-85 (2.53 µM), 0.959; with XMD8-85 (8 µM) it was 0.926; with 4EGI-1 (0.5 µM), 1.03. Besides, the relative viability with 4EGI-1 (1.581 µM) worked out at 0.906; with 4EGI-1 (5 µM), 1.01; in the assay with 4EGI-1 (15.81 µM), 0.95; in the assay with 4EGI-1 (50 µM), 0.753.

With NCI-H1623, the relative viability worked out at 0.906 with XMD8-85 (0.08 µM); 0.891 in the assay with XMD8-85 (0.253 µM); 0.88 with XMD8-85 (0.8 µM); 0.986 with XMD8-85 (2.53 µM); 0.833 with XMD8-85 (8 µM); 1.17 with 4EGI-1 (0.5 µM). Moreover, the relative viability with 4EGI-1 (1.581 µM) was determined as 0.85; in the assay with 4EGI-1 (5 µM), 1.07; with 4EGI-1 (15.81 µM), 0.783; in the assay with 4EGI-1 (50 µM) it was 0.843.

In the case of Calu-6, the relative viability in the assay with XMD8-85 (0.08 µM) was found to be 1.02; with XMD8-85 (0.253 µM) it was 0.962; with XMD8-85 (0.8 µM), 1.08; with XMD8-85 (2.53 µM), 0.96; with XMD8-85 (8 µM), 0.834; in the assay with 4EGI-1 (0.5 µM), 1.03. Besides, the relative viability with 4EGI-1 (1.581 µM) amounted to 0.887; with 4EGI-1 (5 µM), 1.1; with 4EGI-1 (15.81 µM) it was 0.951; with 4EGI-1 (50 µM), 0.618.

On to H3255, for which the relative viability in the assay with XMD8-85 (0.08 µM) came out at 1.1; with XMD8-85 (0.253 µM) it was 0.929; in the assay with XMD8-85 (0.8 µM), 0.882; with XMD8-85 (2.53 µM), 0.916; with XMD8-85 (8 µM) it was 0.674; with 4EGI-1 (0.5 µM), 1.1. The relative viability was 0.784 with 4EGI-1 (1.581 µM), 1.01 with 4EGI-1 (5 µM), 0.801 in the assay with 4EGI-1 (15.81 µM) and 0.981 with 4EGI-1 (50 µM).

NCI-H1563: the relative viability amounted to 1.06 with XMD8-85 (0.08 µM); 0.925 with XMD8-85 (0.253 µM); 0.904 in the assay with XMD8-85 (0.8 µM); 0.951 with XMD8-85 (2.53 µM); 0.88 with XMD8-85 (8 µM); 1.1 with 4EGI-1 (0.5 µM). The relative viability was determined as 0.875 with 4EGI-1 (1.581 µM), 0.976 with 4EGI-1 (5 µM), 0.893 in the assay with 4EGI-1 (15.81 µM) and 0.625 with 4EGI-1 (50 µM).

In the case of A549, the relative viability in the assay with XMD8-85 (0.08 µM) came out at 0.954; with XMD8-85 (0.253 µM), 1; in the assay with XMD8-85 (0.8 µM), 1.05; in the assay with XMD8-85 (2.53 µM), 1.05; with XMD8-85 (8 µM), 0.995; with 4EGI-1 (0.5 µM), 1.03. For the same cell line, the relative viability with 4EGI-1 (1.581 µM) turned out to be 0.792; with 4EGI-1 (5 µM) it was 0.977; in the assay with 4EGI-1 (15.81 µM) it was 0.929; with 4EGI-1 (50 µM), 0.369.

Regarding NCI-H1975, the relative viability in the assay with XMD8-85 (0.08 µM) was found to be 0.989; with XMD8-85 (0.253 µM), 0.92; in the assay with XMD8-85 (0.8 µM), 0.98; in the assay with XMD8-85 (2.53 µM), 0.962; with XMD8-85 (8 µM) it was 0.638; in the assay with 4EGI-1 (0.5 µM), 1.02. In addition, the relative viability was 0.904 with 4EGI-1 (1.581 µM), 1 with 4EGI-1 (5 µM), 0.996 with 4EGI-1 (15.81 µM) and 0.768 with 4EGI-1 (50 µM).

Consider NCI-H1793, for which the relative viability with XMD8-85 (0.08 µM) came to 0.82; in the assay with XMD8-85 (0.253 µM), 0.906; in the assay with XMD8-85 (0.8 µM) it was 0.938; with XMD8-85 (2.53 µM) it was 1.2; with XMD8-85 (8 µM), 0.825; with 4EGI-1 (0.5 µM), 1.05. The relative viability came to 0.95 with 4EGI-1 (1.581 µM), 1.31 in the assay with 4EGI-1 (5 µM), 0.765 in the assay with 4EGI-1 (15.81 µM) and 0.439 with 4EGI-1 (50 µM).

Regarding BEN, the relative viability in the assay with XMD8-85 (0.08 µM) worked out at 1.03; with XMD8-85 (0.253 µM), 0.956; in the assay with XMD8-85 (0.8 µM) it was 0.901; with XMD8-85 (2.53 µM) it was 0.7; in the assay with XMD8-85 (8 µM), 0.523; with 4EGI-1 (0.5 µM) it was 1.15. Besides, the relative viability in the assay with 4EGI-1 (1.581 µM) is 1.07; with 4EGI-1 (5 µM) it was 1.06; with 4EGI-1 (15.81 µM), 0.98; in the assay with 4EGI-1 (50 µM) it was 0.728.

For the cell line LC-2-ad, the relative viability was 1.02 with XMD8-85 (0.08 µM); 0.987 in the assay with XMD8-85 (0.253 µM); 1.03 in the assay with XMD8-85 (0.8 µM); 0.925 with XMD8-85 (2.53 µM); 0.498 with XMD8-85 (8 µM); 1.06 with 4EGI-1 (0.5 µM). In addition, the relative viability with 4EGI-1 (1.581 µM) came out at 0.716; in the assay with 4EGI-1 (5 µM) it was 0.969; with 4EGI-1 (15.81 µM) it was 0.526; with 4EGI-1 (50 µM), 0.248.

NCI-H2085: the relative viability in the assay with XMD8-85 (0.08 µM) stood at 0.945; with XMD8-85 (0.253 µM) it was 0.966; with XMD8-85 (0.8 µM), 0.995; with XMD8-85 (2.53 µM), 0.935; with XMD8-85 (8 µM) it was 0.856; with 4EGI-1 (0.5 µM) it was 1.06. Also, the relative viability with 4EGI-1 (1.581 µM) came to 1.01; in the assay with 4EGI-1 (5 µM), 1.03; with 4EGI-1 (15.81 µM), 0.799; in the assay with 4EGI-1 (50 µM) it was 0.663.
